# Source: patent US20260216238A1, “TETRATHIOMOLYBDIC ACID FOR USE IN TREATING COPPER METABOLISM-ASSOCIATED DISEASES OR DISORDERS (WILSON DISEASE)” (Alexion Pharmaceuticals, Inc., priority 2023, published 2026)
# Assays:
# [1] = test system: patients with Wilson disease (WD); assay: Clinical Global Impression-Improvement scale (CGI-I); format: in vivo, human; conditions: for Transformed CGI-I (−3 to 3), LSM / Transformed CGI-I (−3 to 3), Mean: Study 301 TTM long term set
# Source text: Clinical Global Impression-[…]: The Clinical Global Impression (CGI) rating scales were commonly used measures of symptom severity, treatment response, and the efficacy of treatments in treatment studies of adult and pediatric patients with mental disorders.
# While transformed CGI-I (TCGI-I) assesses how the WD patients' condition changed compared to baseline, CGI-I may indicate the overall clinical improvement of the patients in the study compared to baseline for each treatment arm.
# [2] = test system: patients with Wilson disease (WD); conditions: in vivo
# [3] = test system: patients with Wilson disease (WD); conditions: FIG. 23; TTM versus SoC chelator therapy
# Source text: Urine samples were collected for analysis of urine copper and molybdenum.
# [4] = Subpopulation E, Week 48, TTM N=78, SoC N=39
substance,measurement,setting,value
bis-choline tetrathiomolybdate [TTM],"T-CGI-I (−3 to 3, −3 is very much improved) at 48 weeks, LSM",[1]; Study 301 Full Analysis Set,−0.7
same,"T-CGI-I (−3 to 3, −3 is very much improved) at 48 weeks, Mean",[1]; Study 301 Full Analysis Set,−0.7
same,"Transformed Global Improvement (CGI-I), Change from Baseline, LSM","[1]; Subpopulation E, Week 48",−0.7
same,"Transformed Global Improvement (CGI-I), Change from Baseline, LSM Diff (TTM vs SoC)","[1]; Subpopulation E, Week 48",−0.5
same,"Transformed Global Improvement (CGI-I), Change from Baseline, Max",[1]; [4],1
same,"Transformed Global Improvement (CGI-I), Change from Baseline, Mean",[1]; [4],−0.7
same,"Transformed Global Improvement (CGI-I), Change from Baseline, Median",[1]; [4],0.0
same,"Transformed Global Improvement (CGI-I), Change from Baseline, Min",[1]; [4],"−3,"
same,"Transformed Global Improvement (CGI-I), Change from Baseline, Q1",[1]; [4],"−1.0,"
same,"Transformed Global Improvement (CGI-I), Change from Baseline, Q3",[1]; [4],0.0
same,"T-CGI-I, Difference at 48 weeks, LSM","[1]; TTM vs SoC, P 0.0316",−0.3
same,"CGI-I, LSM difference (SE) TTM versus SoC","[1]; W0-W48, cohort 1 incomplete response or intolerant, p=0.0051",−0.4 (0.15)
same,"Transformed CGI-I (−3 to 3), LSM",[1]; Week 24,−0.6
same,"Transformed CGI-I (−3 to 3), Mean",[1]; Week 24,−0.5
same,"Transformed CGI-I (−3 to 3), LSM",[1]; Week 48,−0.8
same,"Transformed CGI-I (−3 to 3), Mean",[1]; Week 48,−0.7
same,"Transformed CGI-I (−3 to 3), LSM",[1]; Week 72,−0.6
same,"Transformed CGI-I (−3 to 3), Mean",[1]; Week 72,−0.5
same,"Transformed CGI-I (−3 to 3), LSM",[1]; Week 96,−0.6
same,"Transformed CGI-I (−3 to 3), Mean",[1]; Week 96,−0.5
same,"Transformed CGI-I (−3 to 3), LSM",[1]; Week 120,−0.7
same,"Transformed CGI-I (−3 to 3), Mean",[1]; Week 120,−0.7
same,"Transformed CGI-I (−3 to 3), LSM",[1]; Week 144,−0.8
same,"Transformed CGI-I (−3 to 3), Mean",[1]; Week 144,−0.7
same,"ALT increased AE, % participants",[2],14.6%
same,"ALT increased AE, E events",[2],25
same,"ALT increased AE, N participants",[2],20
same,ALT increased adverse event,[2],14.6%
same,"AST increased AE, % participants",[2],2.9%
same,"AST increased AE, E events",[2],4
same,"AST increased AE, N participants",[2],4
same,"GGT increased AE, % participants",[2],2.2%
same,"GGT increased AE, E events",[2],3
same,"GGT increased AE, N participants",[2],3
same,"Hepatic enzyme increased AE, N participants",[2],3
same,"Hepatic function abnormal AE, % participants",[2],2.2%
same,"Hepatic function abnormal AE, E events",[2],3
same,"Hepatic function abnormal AE, N participants",[2],3
same,"Hyperbilirubinemia AE, % participants",[2],0.7%
same,"Hyperbilirubinemia AE, E events",[2],1
same,"Hyperbilirubinemia AE, N participants",[2],1
same,"Hypertransaminasemia AE, % participants",[2],1.5%
same,"Hypertransaminasemia AE, E events",[2],4
same,"Hypertransaminasemia AE, N participants",[2],2
same,"Jaundice AE, % participants",[2],0.7%
same,"Jaundice AE, E events",[2],1
same,"Jaundice AE, N participants",[2],1
same,"LFT abnormal AE, % participants",[2],1.5%
same,"LFT abnormal AE, E events",[2],2
same,"LFT abnormal AE, N participants",[2],2
same,"LFT increased AE, % participants",[2],2.9%
same,"LFT increased AE, E events",[2],4
same,"LFT increased AE, N participants",[2],4
same,"Liver disorder AE, % participants",[2],0.7%
same,"Liver disorder AE, E events",[2],1
same,"Liver disorder AE, N participants",[2],1
same,participants with ALT>3×ULN but≤5×ULN,[2],10.2%
same,participants with ALT>5×ULN but≤10×ULN,[2],7.3%
same,participants with ALT>10×ULN but≤20×ULN,[2],0.7%
same,participants with ALT>20×ULN,[2],2.9%
same,participants with post-baseline elevation of ALT ≥3× ULN,[2],29 participants
same,24-hour urinary copper,[3],lower with TTM than SoC chelator therapy
